This passage reports EC50 and IC50 results from US20120088827A1 (Profectus Biosciences, Inc., priority 2009, published 2012).

Assay [1] has as its system NF-κB driven transcription (pNF-κB-luc reporter, 293 cells). Briefly: 293/NF-kB-luc reporter cell assay. The assay is classed as cell-based. The settings on record: Homo sapiens; compound 2 hours, then 20 ng/ml TNF-α for 18 hours; luminescence. The method, then:
(§1) Two reporter cell assays were used to determine the ability of the compounds of Examples 1-12 to inhibit NF-κB driven transcription. The first assay was a 293-cell based assay with a stably integrated pNF-κB-luc reporter plasmid containing 3 NF-κB promoter elements. The second assay was a 293-cell based assay with a stably integrated pTRH1-NF-κB-dscGFP reporter containing 4 NF-κB promoter elements. Cells were treated with 0, 0.2, 1, 10, 20 and 40 μM of the compounds of Example 1-12 for 2 hours then were induced with 20 ng/ml TNF-α for 18 hours. Following the induction, luminescence or fluorescence was quantified using a Beckman-Coulter 2300 plate reader. […] As a control, 0.5% DMSO treated and untreated cells were compared to verify that the compounds of Examples 1-12 had no effect on the expression of luciferase or in the readout of the assay. There was a slight decrease in the output from the assay in the DMSO treated population although it was not statistically significant. As a result of the controls, the decrease in activity in the drug treated samples was compared to the DMSO control sample.

The target in a further assay is T1, NF-κB p65 (Homo sapiens, UniProt Q04206).
T1 construct: purchased Active Motif
The experiment in a line: TransAM NF-κB Family DNA Binding ELISA, p65. The settings on record: binding to NF-κB consensus oligonucleotide; read-out: p65 binding IC50. The method, then: The binding activity of NF-κB heterodimer or homodimer subunits from activated nuclear extracts or purified recombinant NF-κB proteins exposed to the drug compounds was evaluated using the TransAM NF-κB Family binding ELISA (Active Motif). Approximately 3-5 μg of nuclear extracts from TNFα activated Hela or Raji cells (Active Motif) or 20 ng of purified recombinant proteins (p65 and p50 from Active Motif, p52 from Santa Cruz) were incubated for 1 hour at room temperature with 20 μL drug compounds diluted in Complete Lysis buffer without DTT. Treated samples were then transferred to 30 μL Complete Binding Buffer (with DTT) in microplate wells pre-coated with the NF-κB consensus oligonucleotide. […] The plate was incubated for 1 hour at room temperature with gentle shaking and then washed 3 times with 200 μL 1× Wash Buffer. NF-κB p65, p50, p52, RelB, or c-Rel subunits bound to the plate were detected with 100 μL of the primary antibody (diluted 1:1000 in 1× Antibody Buffer) specific for that subunit. The plate was incubated for 1 hour at room temperature and then washed 3 times with 200 μL 1× Wash Buffer. Next, 100 μL of a HRP conjugated goat anti-rabbit antibody (diluted 1:1,000 in 1× Antibody Buffer) was added to each well. The plate was incubated for 1 hour at room temperature and then washed 4 times with 200 μL 1× Wash Buffer. 100 μL of room temperature Developing Solution was added to each well. The reaction was allowed to develop for 2-10 minutes until a medium dark blue color developed (depending on the subunit activity in the lot of extract or lot of recombinant protein used) and then the reaction was stopped with 100 μL Stop Solution yielding a yellow color. Absorbance was recorded using a Becton-Dickinson DTX 880 Multimode Detector at 450 nm with a reference wavelength subtracted at 620 nm.
On the technique in general: ELISA stands for enzyme-linked immunosorbent assay.

In the next assay the test system is IL-6. The experiment in a line: Inhibition of IL-6 release in LPS-stimulated RAW 264.7 cells. Type of assay: cell-based. Particulars: Mus musculus, RAW264.7; pretreated 2 hours, 1 μg/mL LPS 20-24 hours. The protocol:
RAW 264.7 cells were seeded at 4×10^4 cells per well in complete growth medium in 96 well white TC plates with clear bottoms one day prior to the assay. The next day the cells were washed once and 100 μL fresh growth media was added. Cells were pretreated with 0.5 μL from a 6 point 200× dilution series of the test compounds in DMSO for 2 hours. Following pretreatment with the drugs, the inflammatory response was induced by adding 5 μL of a 20 μg/mL solution of LPS (Sigma). The cells were incubated in the presence of the drugs and 1 μg/mL LPS for another 20-24 hours. Typically after treatment the total DMSO was […] of the culture volume and the final concentrations of the compounds were approximately: 40, 20, 10, 1, 0.2 and 0 μM depending on the MW of each compound. Modified dilution series were prepared as needed to get adequate dose response curves without changing the % DMSO. Samples were run in duplicate or triplicate and included DMSO treated control wells with and without LPS stimulation. Drugs with a known activity such as Parthenolide or DHMEQ were run as experimental controls. After 20-24 hours LPS activation, the media supernatant was collected from the cells and replaced with fresh media. The supernatant samples were cleared by centrifugation at 1,000×g for 5 minutes, transferred to fresh storage plates, and stored frozen at −30° C.
After determining the appropriate supernatant dilutions experimentally, mIL-6 levels in the supernatants were quantified using Quantikine™ mouse IL-6 Immunoassay (R&D Systems) according to the manufacturer's protocol. Approximately 50 μL of the supernatants diluted in Calibrator Diluent were added to 50 μL of Assay Diluent in microplate wells pre-coated with an anti-mouse IL-6 capture antibody. Controls included a calibrated positive IL-6 control sample, non-specific binding (NSB) wells containing Calibrator Diluent but no IL-6, and a recombinant mouse IL-6 standard dilution series (10-1000 pg/mL). The plates were incubated at room temperature for 2 hours with shaking and then washed 5 times with 400 μL 1× Wash Buffer. Approximately 100 μL of an HRP-conjugated anti-mouse IL-6 antibody was added to each well to detect IL-6 captured on the plate. The plates were incubated at room temperature for 2 hours and then washed 5 times with 400 μl 1× Wash Buffer. Equal volumes of Color Reagents A and B were mixed and 100 μL of this HRP Substrate Solution was added to each well on the plate. The blue color was allowed to develop for 30 minutes and then the reaction was stopped using 100 μL of Stop Solution yielding a yellow color. Absorbance at 450 nm with a reference wavelength subtracted at 595 nm was recorded using a Becton-Dickinson DTX 880 Multimode Detector.
The concentration of mIL-6 in the unknown samples was determined from a curve-fit of the mIL-6 standard absorbance data and multiplying by the dilution factor. The maximum activity achieved in the absence of the inhibitor (DMSO+LPS treated wells) was arbitrarily given a value of 100%; likewise the minimum activity in the absence of the stimulant (no LPS) was assigned a value of 0% Inhibition of the amount of mIL-6 cytokine released in the drug treated wells was calculated relative to the maximum activation in the DMSO+LPS treated control wells (i.e., % inhibition=100−(drug+LPS treated)/(DMSO+LPS treated)). Dose response curves were used to determine the effective concentration to inhibit 50% of the mIL-6 cytokine released (IC50) by means of a SigmaPlot macro which fits a sigmoidal dose-response curve to the (log 10) μM concentration versus % inhibition. […] This technique yields an objective value for the IC50 provided that 50% inhibition was approached at the concentrations tested.

The test system of assay [2] is NF-κB driven transcription (pTRH1-NF-κB-dscGFP reporter, 293 cells). The experiment in a line: NF-kB/293/GFP reporter cell assay. Type of assay: cell-based. The settings on record: Homo sapiens, HEK293; compound 2 hours, then 20 ng/ml TNF-α for 18 hours; fluorescence. The method, then:
as §1

Each structure is given as a SMILES string.

T1 sequence (Q04206 whole entry): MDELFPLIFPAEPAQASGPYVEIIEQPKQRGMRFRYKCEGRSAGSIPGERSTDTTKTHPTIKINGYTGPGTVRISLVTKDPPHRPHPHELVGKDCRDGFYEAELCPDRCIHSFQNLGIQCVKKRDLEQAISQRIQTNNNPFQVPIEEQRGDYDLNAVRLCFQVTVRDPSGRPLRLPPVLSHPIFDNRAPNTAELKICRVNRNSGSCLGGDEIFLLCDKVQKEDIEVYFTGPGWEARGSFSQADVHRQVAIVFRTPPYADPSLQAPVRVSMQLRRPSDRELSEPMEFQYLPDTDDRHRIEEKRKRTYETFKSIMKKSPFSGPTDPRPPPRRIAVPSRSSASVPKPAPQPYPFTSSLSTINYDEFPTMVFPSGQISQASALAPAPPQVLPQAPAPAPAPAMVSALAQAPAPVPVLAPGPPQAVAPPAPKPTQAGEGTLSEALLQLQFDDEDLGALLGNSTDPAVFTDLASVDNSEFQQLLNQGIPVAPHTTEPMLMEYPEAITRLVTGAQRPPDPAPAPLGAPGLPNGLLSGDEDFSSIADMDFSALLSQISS

For orientation: EC50 means the concentration giving half of the maximal effect. A word on the IC50: it is the concentration at which inhibition is half-maximal. With `CC(C)CC(=O)Oc1ccccc1C(=O)NC1=CC(=O)C2OC2C1O` (racemic) [Example 1, (±)-2-(2-hydroxy-5-oxo-7-oxabicyclo[4.1.0]hept-3-en-3-ylcarbamoyl)phenyl 3-methylbutanoate], the half-maximal effective concentration (EC50) was determined as 18 µM in assay [1], 0.5 µM in the assay on IL-6 and 11 µM in assay [2]. For the same molecule, the IC50 on NF-κB p65 turned out to be 214 µM.

Turning to `CC(C)OC(=O)Oc1ccccc1C(=O)NC1=CC(=O)C2OC2C1OC(=O)OC(C)C` (racemic) [Example 2, (±)-3-(2-isopropoxycarbonyloxy-benzoylamino)-5-oxo-7-oxa-bicyclo[4.1.0]hept-3-en-2-yl ester isopropyl ester], the EC50 in assay [1] came to 11 µM; in the assay with IL-6, 1.3 µM. The IC50 on NF-κB p65 was greater than 376 µM.

Regarding `O=C(CC1CCCCC1)Oc1ccccc1C(=O)NC1=CC(=O)C2OC2C1O` (racemic) [Example 3, (±)-2-(2-hydroxy-5-oxo-7-oxabicyclo[4.1.0]hept-3-en-3-ylcarbamoyl)phenyl 2-cyclohexylacetate], the EC50 came out at 14 µM in assay [1], 0.72 µM in the assay with IL-6 and 10 µM in assay [2]. The 50% inhibitory concentration (IC50) on NF-κB p65 turned out to be 93 µM.

Take `CCCC(C)C(=O)Oc1ccccc1C(=O)NC1=CC(=O)C2OC2C1O` (racemic) [Example 4, (±)-2-(2-hydroxy-5-oxo-7-oxabicyclo[4.1.0]hept-3-en-3-ylcarbamoyl)phenyl 2-methylpentanoate]: the half-maximal effective concentration (EC50) amounted to 10 µM in assay [1], 0.45 µM in the assay with IL-6 and 17 µM in assay [2]. On NF-κB p65, the IC50 is 149 µM.

Take `CCCCC(CC)C(=O)Oc1ccccc1C(=O)NC1=CC(=O)C2OC2C1O` (racemic) [Example 5, (±)-2-(2-hydroxy-5-oxo-7-oxabicyclo[4.1.0]hept-3-en-3-ylcarbamoyl)phenyl 2-ethylhexanoate]: the EC50 in assay [1] was found to be 15 µM; in the assay with IL-6, 0.44 µM; in assay [2] it was 6.7 µM. Further, at NF-κB p65, the IC50 was greater than 430 µM.

`CC(C)(C)CC(=O)Oc1ccccc1C(=O)NC1=CC(=O)C2OC2C1O` (racemic) [Example 6, (±)-2-(2-hydroxy-5-oxo-7-oxabicyclo[4.1.0]hept-3-en-3-ylcarbamoyl)phenyl 3,3-dimethylbutanoate]: the concentration giving a half-maximal response (EC50) was 8 µM in assay [1], 0.35 µM in the assay on IL-6 and 10 µM in assay [2]. Also, the IC50 at NF-κB p65 stood at 67 µM.

Regarding `CC(C)OC(=O)Oc1ccccc1C(=O)NC1=CC(=O)C2OC2C1O` (racemic) [Example 7, (±)-2-(2-hydroxy-5-oxo-7-oxabicyclo[4.1.0]hept-3-en-3-ylcarbamoyl)phenyl isopropyl carbonate], the 50% effective concentration (EC50) in assay [1] came out at 17 µM; with IL-6, 1.7 µM; in assay [2], 8.4 µM. Also, the IC50 on NF-κB p65 was greater than 480 µM.

`CC(C)OC(=O)OC1C(NC(=O)c2ccccc2O)=CC(=O)C2OC21` (racemic) [Example 8]: the EC50 in assay [1] was 10 µM; in the assay on IL-6, 1.5 µM; in assay [2] it was 14 µM. Further, the concentration for half-maximal inhibition (IC50) at NF-κB p65 amounted to 336 µM.
